The NIST ThermoML archive (doi:10.1016/j.fluid.2010.01.023)
Several values for one entry are separate records, joined by “and”; a condition that tells them apart may be missing. Equal entries are not always repeated.

Assay: xn = mol fraction of the nth substance listed
Conditions: Fluid (supercritical or subcritical phases), quasistatic thermogram and barogram, x2 = 0.7393

N [ammonia] + O
Conditions | thermal pressure coefficient
594.84 K, Mass density=120.03 kg/m3 | 91 kPa/K
594.84 K, Mass density=147.43 kg/m3 | 126 kPa/K
595.16 K, Mass density=376.89 kg/m3 | 205 kPa/K and 295 kPa/K
595.35 K, Mass density=147.43 kg/m3 | 124 kPa/K
595.35 K, Mass density=456.58 kg/m3 | 451 kPa/K
595.53 K, Mass density=342.18 kg/m3 | 199 kPa/K
595.61 K, Mass density=285.71 kg/m3 | 196 kPa/K
595.78 K, Mass density=309.95 kg/m3 | 200 kPa/K
595.78 K, Mass density=376.89 kg/m3 | 296 kPa/K
596.04 K, Mass density=160.07 kg/m3 | 183 kPa/K
596.04 K, Mass density=227.54 kg/m3 | 195 kPa/K
596.47 K, Mass density=308.35 kg/m3 | 205 kPa/K
596.73 K, Mass density=307.35 kg/m3 | 201 kPa/K
596.9 K, Mass density=271.09 kg/m3 | 199 kPa/K
597.08 K, Mass density=342.18 kg/m3 | 198 kPa/K
597.33 K, Mass density=160.07 kg/m3 | 151 kPa/K
597.33 K, Mass density=311.19 kg/m3 | 199 kPa/K
597.33 K, Mass density=376.89 kg/m3 | 306 kPa/K
597.35 K, Mass density=160.07 kg/m3 | 174 kPa/K and 147 kPa/K
597.42 K, Mass density=295.31 kg/m3 | 196 kPa/K
597.5 K, Mass density=188.05 kg/m3 | 187 kPa/K
597.56 K, Mass density=342.18 kg/m3 | 197 kPa/K and 261 kPa/K
597.59 K, Mass density=218.92 kg/m3 | 197 kPa/K
597.76 K, Mass density=292.97 kg/m3 | 199 kPa/K
598.19 K, Mass density=224.53 kg/m3 | 198 kPa/K
598.28 K, Mass density=376.89 kg/m3 | 311 kPa/K
598.33 K, Mass density=329 kg/m3 | 195 kPa/K and 249 kPa/K
598.36 K, Mass density=160.07 kg/m3 | 140 kPa/K
598.45 K, Mass density=320.33 kg/m3 | 197 kPa/K
598.54 K, Mass density=297.6 kg/m3 | 191 kPa/K
598.57 K, Mass density=301.94 kg/m3 | 199 kPa/K
598.63 K, Mass density=291.16 kg/m3 | 201 kPa/K
598.71 K, Mass density=297.6 kg/m3 | 192 kPa/K
598.96 K, Mass density=243.97 kg/m3 | 201 kPa/K
598.96 K, Mass density=320.33 kg/m3 | 192 kPa/K and 246 kPa/K
598.97 K, Mass density=376.89 kg/m3 | 311 kPa/K
599.05 K, Mass density=160.07 kg/m3 | 139 kPa/K
599.05 K, Mass density=299.79 kg/m3 | 192 kPa/K
599.05 K, Mass density=329 kg/m3 | 258 kPa/K
599.14 K, Mass density=160.07 kg/m3 | 137 kPa/K
599.22 K, Mass density=214.43 kg/m3 | 201 kPa/K
599.42 K, Mass density=312.91 kg/m3 | 192 kPa/K and 244 kPa/K
599.44 K, Mass density=320.33 kg/m3 | 250 kPa/K
599.52 K, Mass density=206.01 kg/m3 | 198 kPa/K
599.57 K, Mass density=311.19 kg/m3 | 193 kPa/K and 240 kPa/K
599.57 K, Mass density=456.58 kg/m3 | 456 kPa/K
599.67 K, Mass density=309.95 kg/m3 | 192 kPa/K and 236 kPa/K
599.78 K, Mass density=308.35 kg/m3 | 192 kPa/K and 234 kPa/K
599.89 K, Mass density=307.35 kg/m3 | 192 kPa/K and 231 kPa/K
599.91 K, Mass density=295.31 kg/m3 | 196 kPa/K
600.02 K, Mass density=305.44 kg/m3 | 192 kPa/K and 229 kPa/K
600.17 K, Mass density=195.99 kg/m3 | 195 kPa/K
600.17 K, Mass density=303.47 kg/m3 | 192 kPa/K and 229 kPa/K
600.29 K, Mass density=301.94 kg/m3 | 192 kPa/K and 228 kPa/K
600.48 K, Mass density=299.79 kg/m3 | 193 kPa/K and 226 kPa/K
600.59 K, Mass density=309.95 kg/m3 | 248 kPa/K
600.63 K, Mass density=297.6 kg/m3 | 193 kPa/K and 225 kPa/K
600.68 K, Mass density=230.31 kg/m3 | 200 kPa/K
600.77 K, Mass density=308.35 kg/m3 | 240 kPa/K
600.81 K, Mass density=295.31 kg/m3 | 193 kPa/K and 224 kPa/K
600.93 K, Mass density=292.97 kg/m3 | 194 kPa/K and 224 kPa/K
600.94 K, Mass density=260.02 kg/m3 | 193 kPa/K
600.94 K, Mass density=305.44 kg/m3 | 237 kPa/K
601.02 K, Mass density=291.16 kg/m3 | 192 kPa/K
601.02 K, Mass density=342.18 kg/m3 | 281 kPa/K
601.05 K, Mass density=291.16 kg/m3 | 193 kPa/K and 223 kPa/K
601.11 K, Mass density=320.33 kg/m3 | 257 kPa/K
601.16 K, Mass density=188.05 kg/m3 | 186 kPa/K and 168 kPa/K
601.19 K, Mass density=227.54 kg/m3 | 200 kPa/K
601.28 K, Mass density=214.43 kg/m3 | 203 kPa/K
601.28 K, Mass density=301.94 kg/m3 | 234 kPa/K
601.34 K, Mass density=285.71 kg/m3 | 196 kPa/K and 222 kPa/K
601.37 K, Mass density=206.01 kg/m3 | 199 kPa/K
601.37 K, Mass density=224.53 kg/m3 | 201 kPa/K
601.45 K, Mass density=297.6 kg/m3 | 225 kPa/K
601.45 K, Mass density=299.79 kg/m3 | 239 kPa/K
601.54 K, Mass density=295.31 kg/m3 | 238 kPa/K
601.71 K, Mass density=230.31 kg/m3 | 202 kPa/K
601.71 K, Mass density=376.89 kg/m3 | 327 kPa/K
601.75 K, Mass density=195.99 kg/m3 | 195 kPa/K and 181 kPa/K
602.05 K, Mass density=218.92 kg/m3 | 201 kPa/K
602.05 K, Mass density=271.09 kg/m3 | 197 kPa/K and 217 kPa/K
602.22 K, Mass density=312.91 kg/m3 | 261 kPa/K
602.26 K, Mass density=206.01 kg/m3 | 199 kPa/K and 188 kPa/K
602.31 K, Mass density=307.35 kg/m3 | 241 kPa/K
602.39 K, Mass density=376.89 kg/m3 | 320 kPa/K
602.45 K, Mass density=260.02 kg/m3 | 199 kPa/K and 215 kPa/K
602.65 K, Mass density=456.58 kg/m3 | 458 kPa/K
602.74 K, Mass density=214.43 kg/m3 | 202 kPa/K and 195 kPa/K
602.74 K, Mass density=342.18 kg/m3 | 286 kPa/K
602.85 K, Mass density=218.92 kg/m3 | 202 kPa/K and 198 kPa/K
602.91 K, Mass density=243.97 kg/m3 | 202 kPa/K and 208 kPa/K
602.96 K, Mass density=224.53 kg/m3 | 202 kPa/K and 200 kPa/K
602.96 K, Mass density=230.31 kg/m3 | 202 kPa/K and 204 kPa/K
602.97 K, Mass density=227.54 kg/m3 | 202 kPa/K and 203 kPa/K
603.08 K, Mass density=311.19 kg/m3 | 256 kPa/K
603.34 K, Mass density=206.01 kg/m3 | 182 kPa/K
603.76 K, Mass density=218.92 kg/m3 | 196 kPa/K
603.85 K, Mass density=214.43 kg/m3 | 191 kPa/K
603.85 K, Mass density=227.54 kg/m3 | 203 kPa/K
604.11 K, Mass density=224.53 kg/m3 | 200 kPa/K
604.11 K, Mass density=230.31 kg/m3 | 205 kPa/K
604.36 K, Mass density=243.97 kg/m3 | 210 kPa/K
605.39 K, Mass density=329 kg/m3 | 275 kPa/K
605.47 K, Mass density=147.43 kg/m3 | 120 kPa/K
606.58 K, Mass density=376.89 kg/m3 | 333 kPa/K
606.76 K, Mass density=195.99 kg/m3 | 172 kPa/K
607.78 K, Mass density=342.18 kg/m3 | 290 kPa/K
607.95 K, Mass density=376.89 kg/m3 | 332 kPa/K
608.04 K, Mass density=309.95 kg/m3 | 261 kPa/K
608.55 K, Mass density=160.07 kg/m3 | 131 kPa/K
609.42 K, Mass density=320.33 kg/m3 | 279 kPa/K
609.48 K, Mass density=195.99 kg/m3 | 168 kPa/K
609.71 K, Mass density=308.35 kg/m3 | 272 kPa/K
609.99 K, Mass density=295.31 kg/m3 | 250 kPa/K
610.25 K, Mass density=312.91 kg/m3 | 270 kPa/K
610.59 K, Mass density=311.19 kg/m3 | 265 kPa/K
610.85 K, Mass density=307.35 kg/m3 | 266 kPa/K
611.44 K, Mass density=299.79 kg/m3 | 257 kPa/K
611.55 K, Mass density=342.18 kg/m3 | 299 kPa/K
611.61 K, Mass density=230.31 kg/m3 | 209 kPa/K
611.61 K, Mass density=301.94 kg/m3 | 259 kPa/K
612.63 K, Mass density=376.89 kg/m3 | 342 kPa/K
615.35 K, Mass density=160.07 kg/m3 | 131 kPa/K
616.03 K, Mass density=311.19 kg/m3 | 277 kPa/K
616.12 K, Mass density=312.91 kg/m3 | 269 kPa/K
616.28 K, Mass density=309.95 kg/m3 | 261 kPa/K
616.37 K, Mass density=329 kg/m3 | 285 kPa/K
617.05 K, Mass density=299.79 kg/m3 | 260 kPa/K
618.4 K, Mass density=342.18 kg/m3 | 304 kPa/K
620.1 K, Mass density=297.6 kg/m3 | 260 kPa/K
624.91 K, Mass density=160.07 kg/m3 | 132 kPa/K
633.33 K, Mass density=160.07 kg/m3 | 134 kPa/K
